Experimental data taken from ChEMBL document CHEMBL1687767, “New antiseptic peptides to protect against endotoxin-mediated shock” (Antimicrob Agents Chemother, 2010).
In brackets after ≈: the same amount, converted by molar mass. Activity calls are given as the source filed them. The rule behind the calls is not given here. Residues, ends and D or L forms follow the SMILES beside them.

Legend:
[1] = tested on: Bordetella bronchiseptica; experiment: Antimicrobial activity against Bordetella bronchiseptica CUN11844-99 by broth microdilution method; type: functional
[2] = tested on: Pseudomonas aeruginosa; experiment: Antimicrobial activity against Pseudomonas aeruginosa CUN 4158-02 by broth microdilution method; type: functional
[3] = tested on: Pseudomonas aeruginosa; experiment: Antimicrobial activity against Pseudomonas aeruginosa ATCC 27853 by broth microdilution method; type: functional
[4] = tested on: Escherichia coli; experiment: Antimicrobial activity against Escherichia coli ATCC 25922 by broth microdilution method; type: functional
[5] = tested on: Staphylococcus aureus; experiment: Antimicrobial activity against Staphylococcus aureus ATCC 25923 by broth microdilution method; type: functional
[6] = tested on: Staphylococcus aureus; experiment: Antimicrobial activity against methicillin-resistant Staphylococcus aureus ATCC 43300 by broth microdilution method; type: functional
[7] = tested on: Staphylococcus aureus; experiment: Antimicrobial activity against methicillin-resistant Staphylococcus aureus CUN 3792-99 by broth microdilution method; type: functional
[8] = tested on: Stenotrophomonas maltophilia; experiment: Antimicrobial activity against […] Stenotrophomonas maltophilia CUN 3998-00 by broth microdilution method; type: functional
[9] = tested on: Acinetobacter baumannii; experiment: Antimicrobial activity against […] Acinetobacter baumannii ATCC 19606 by broth microdilution method; type: functional
[10] = organism: Homo sapiens; experiment: Antiinflammatory activity in human MNC assessed as inhibition of LPS-induced TNFalpha production at compound: LPS ratio of 100:1 weight percent by ELISA; type: functional
[11] = tested on: Mus musculus; experiment: Antisepsis activity in Pseudomonas aeruginosa LPS-induced C57BL/6 mouse lethal endotoxin shock model assessed as mouse survival at 12.5 ug, ip administered immediately after LPS challenge; type: functional, organism-based
[12] = Toxicity in human RBC assessed as hemolysis upto 25 ug/ml; type: cell-based; settings: erythrocyte

N=C(N)NCCC[C@H](NC(=O)[C@H](Cc1ccc(O)cc1)NC(=O)[C@H](CCCCN)NC(=O)[C@H](CCCCN)NC(=O)[C@H](CS)NC(=O)CN)C(=O)N[C@@H](CCCNC(=N)N)C(=O)N[C@@H](Cc1ccccc1)C(=O)N[C@@H](CCCNC(=N)N)C(=O)N[C@@H](Cc1c[nH]c2ccccc12)C(=O)N[C@@H](CCCCN)C(=O)N[C@@H](Cc1ccccc1)C(=O)N[C@@H](CCCCN)C(=O)NCC(=O)N[C@@H](CCCCN)C(=O)N[C@@H](Cc1ccccc1)C(=O)N[C@@H](Cc1c[nH]c2ccccc12)C(=O)N[C@@H](Cc1ccccc1)C(=O)N[C@@H](Cc1c[nH]c2ccccc12)C(=O)N[C@@H](CS)C(=O)NCC(=O)O (H-GCKKYRRFRWKFKGKFWFWCG-OH)
MIC [1]: 32 µg/mL (≈ 11.4 µM)
MIC [2]: 256 µg/mL (≈ 90.9 µM)
MIC [3]: 128 µg/mL (≈ 45.5 µM)
MIC [4]: 128 µg/mL (≈ 45.5 µM)
MIC [5]: 128 µg/mL (≈ 45.5 µM)
MIC [6]: 128 µg/mL (≈ 45.5 µM)
MIC [7]: 1020 µg/mL (≈ 364 µM)
MIC [8]: 512 µg/mL (≈ 182 µM)
MIC [9]: 64 µg/mL (≈ 22.7 µM)
inhibition [10]: Active
Activity [11]: Active

CC(C)C[C@H](NC(=O)[C@H](Cc1c[nH]c2ccccc12)NC(=O)[C@H](CC(C)C)NC(=O)[C@H](CCCCN)NC(=O)[C@H](CCC(N)=O)NC(=O)[C@H](CCCCN)NC(=O)[C@H](CS)NC(=O)[C@H](CCCCN)NC(=O)[C@H](CC(C)C)NC(=O)[C@H](CCCCN)NC(=O)[C@H](Cc1ccccc1)NC(=O)[C@H](CCCNC(=N)N)NC(=O)[C@H](CCCNC(=N)N)NC(=O)[C@H](Cc1ccccc1)NC(=O)[C@H](CCCCN)NC(=O)[C@H](CCCCN)NC(=O)[C@H](CS)NC(=O)CN)C(=O)N[C@@H](Cc1c[nH]c2ccccc12)C(=O)N[C@@H](CS)C(=O)NCC(=O)O (H-GCKKFRRFKLKCKQKLWLWCG-OH)
MIC [1]: 16 µg/mL (≈ 6.02 µM)
MIC [2]: 256 µg/mL (≈ 96.3 µM)
MIC [3]: 256 µg/mL (≈ 96.3 µM)
MIC [4]: 1020 µg/mL (≈ 385 µM)
MIC [5]: 1020 µg/mL (≈ 385 µM)
MIC [6]: 64 µg/mL (≈ 24.1 µM)
MIC [7]: 32 µg/mL (≈ 12 µM)
MIC [8]: 1020 µg/mL (≈ 385 µM)
MIC [9]: 64 µg/mL (≈ 24.1 µM)

N=C(N)NCCC[C@H](NC(=O)[C@H](Cc1ccccc1)NC(=O)[C@H](CCCCN)NC(=O)[C@H](Cc1c[nH]c2ccccc12)NC(=O)[C@H](CS)NC(=O)[C@H](Cc1ccccc1)NC(=O)[C@H](CCCNC(=N)N)NC(=O)[C@H](Cc1ccc(O)cc1)NC(=O)[C@H](CCCCN)NC(=O)CNC(=O)[C@H](Cc1ccccc1)NC(=O)[C@H](CCCNC(=N)N)NC(=O)[C@H](Cc1c[nH]c2ccccc12)NC(=O)[C@H](CCCCN)NC(=O)CNC(=O)[C@H](Cc1ccccc1)NC(=O)[C@@H](N)CCCCN)C(=O)NCC(=O)N[C@@H](Cc1c[nH]c2ccccc12)C(=O)N[C@@H](CCCCN)C(=O)O (H-KFGKWRFGKYRFCWKFRGWK-OH)
Activity [12]: Non-toxic

CC[C@H](C)[C@H](NC(=O)CN)C(=O)NCC(=O)N[C@@H](C)C(=O)N[C@H](C(=O)N[C@@H](CC(C)C)C(=O)N[C@@H](CCCCN)C(=O)N[C@H](C(=O)N[C@@H](CC(C)C)C(=O)N[C@H](C(=O)N[C@H](C(=O)NCC(=O)N[C@@H](CC(C)C)C(=O)N1CCC[C@H]1C(=O)N[C@@H](C)C(=O)N[C@@H](CC(C)C)C(=O)N[C@H](C(=O)N[C@@H](CO)C(=O)N[C@@H](Cc1c[nH]c2ccccc12)C(=O)N[C@H](C(=O)N[C@@H](CCCCN)C(=O)N[C@@H](CCCNC(=N)N)C(=O)N[C@@H](CCCCN)C(=O)N[C@@H](CCCNC(=N)N)C(=O)N[C@@H](CCC(N)=O)C(=O)N[C@@H](CCC(N)=O)C(N)=O)[C@@H](C)CC)[C@@H](C)CC)[C@@H](C)O)[C@@H](C)O)C(C)C)C(C)C [MELITTIN]
Activity [12]: Non-toxic

N=C(N)NCCC[C@H](NC(=O)CNC(=O)[C@H](CCCNC(=N)N)NC(=O)[C@H](Cc1ccccc1)NC(=O)[C@H](CCCNC(=N)N)NC(=O)[C@H](Cc1c[nH]c2ccccc12)NC(=O)[C@H](CCCCN)NC(=O)[C@H](Cc1ccccc1)NC(=O)[C@H](CCCCN)NC(=O)[C@H](CCCCN)NC(=O)[C@H](Cc1ccc(O)cc1)NC(=O)[C@H](CCCNC(=N)N)NC(=O)[C@H](CCCNC(=N)N)NC(=O)CN)C(=O)N[C@@H](Cc1ccccc1)C(=O)N[C@@H](Cc1c[nH]c2ccccc12)C(=O)N[C@@H](Cc1ccccc1)C(=O)N[C@@H](Cc1c[nH]c2ccccc12)C(=O)NCC(=O)O (H-GRRYKKFKWRFRGRFWFWG-OH)
MIC [1]: 16 µg/mL (≈ 6 µM)
MIC [4]: 64 µg/mL (≈ 24 µM)
MIC [5]: 32 µg/mL (≈ 12 µM)
